PubChem BioAssay (NCI)
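Test compounds were applied to cells in 96-well plates for 48 hours at 5 doses. The concentration for 50% growth inhibition is given as GI50. TGI marks complete inhibition of growth.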

Legend:
Assay in all cases: NCI-60 cell line screen, 48 h
CAKI-1 renal = system: CAKI-1 renal
EKVX NSCLC = system: EKVX NSCLC
LOX IMVI melanoma = system: LOX IMVI melanoma
M14 melanoma = system: M14 melanoma
NCI-H522 lung = system: NCI-H522 lung
SF-539 CNS = system: SF-539 CNS
SK-MEL-5 melanoma = system: SK-MEL-5 melanoma
SN12C renal = system: SN12C renal
MCF7 breast = system: MCF7 breast
MDA-MB-231 breast = system: MDA-MB-231 breast

Compound	GI50 (CAKI-1 renal) [µM]	TGI (CAKI-1 renal) [µM]	GI50 (EKVX NSCLC) [µM]	TGI (EKVX NSCLC) [µM]	GI50 (LOX IMVI melanoma) [µM]	TGI (LOX IMVI melanoma) [µM]	GI50 (M14 melanoma) [µM]	TGI (M14 melanoma) [µM]	GI50 (NCI-H522 lung) [µM]	TGI (NCI-H522 lung) [µM]	GI50 (SF-539 CNS) [µM]	TGI (SF-539 CNS) [µM]	GI50 (SK-MEL-5 melanoma) [µM]	TGI (SK-MEL-5 melanoma) [µM]	GI50 (SN12C renal) [µM]	TGI (SN12C renal) [µM]	GI50 (MCF7 breast) [µM]	TGI (MCF7 breast) [µM]	GI50 (MDA-MB-231 breast) [µM]	TGI (MDA-MB-231 breast) [µM]
CC(=O)OCC1OC([Se-])C(OC(C)=O)C(OC(C)=O)C1OC(C)=O.N#CCC[PH+](CCC#N)CCC#N.[Au+] (centres undefined)	16.2	55.6	3.12	8.21	4.34	28.9	3.63	18.3	5.75	40.8	15.3	41.2	3.43	15.9	6.33	31.9	–	–	–	–
N#Cc1ccc(C(C2C(=O)NC(=O)NC2=O)C2C(=O)NC(=O)NC2=O)cc1	–	> 100	–	> 100	–	> 100	–	> 100	–	> 100	–	> 100	–	> 100	–	> 100	–	–	–	–
CC(=O)SC(SC(C)=O)SC(C)=O	–	–	–	> 100	–	> 100	–	> 100	–	45.2	–	> 100	–	> 100	–	> 100	–	–	–	–
CCC1c2cc3n(c(=O)c2COC1O)Cc1c-3nc2ccccc2c1Cl (centres undefined)	–	> 100	–	> 100	–	> 100	–	> 75	–	> 100	–	> 100	–	> 100	–	> 100	–	–	–	–
COc1cc(C2C(C(=O)O)=C(COC(C)=O)Oc3cc4c(cc32)OCO4)cc(OC)c1OC(C)=O (centres undefined)	–	> 100	–	> 100	–	> 100	–	> 100	–	–	–	–	–	> 100	–	> 100	–	–	–	–
COC(=O)c1nc(C(=O)OC)c2c([nH]c3ccccc32)c1C(=O)OC	–	–	–	–	–	> 100	–	> 100	–	–	–	> 100	–	95.1	–	> 100	–	–	–	–
O=C(Cc1ccccc1)N/N=C(/c1nc2ccc([N+](=O)[O-])cc2[nH]c1=O)C(O)c1ccccc1Cl (centres undefined)	–	> 100	–	> 100	–	> 100	–	> 100	–	> 100	–	> 100	–	> 100	–	> 100	–	–	–	–
O=C1NC(=O)C2C1C1C=C3c4ccccc4N(c4ccccc4)C32[C@H]2C(=O)NC(=O)[C@@H]12 (some centres undefined)	–	> 100	–	> 100	–	> 100	–	> 100	–	> 100	–	> 100	–	> 100	–	> 100	–	–	–	–
CCc1nc2ccccc2c(=O)n1/N=C(\N=Nc1ccc(Cl)cc1)c1ccccc1	–	46.4	–	75.2	–	40.5	–	> 100	–	> 69.3	–	51.8	–	44.6	–	> 100	–	–	–	–
C#CCn1c(=O)c2cccnc2n(CC#C)c1=O	–	> 100	–	–	–	> 100	–	> 100	–	> 100	–	–	–	> 100	–	> 100	–	–	–	–
O=C(O)CCC1CCc2cccc(OCC(=O)O)c2C1=O (centres undefined)	–	> 100	–	> 100	–	> 100	–	> 100	–	–	–	> 100	–	> 100	–	> 100	–	–	–	–
CC(C)(CN1CCCCC1)C(=O)CC(SCCN)c1ccc(Cl)cc1 (centres undefined)	–	5.85	–	4.53	–	4.85	–	3.63	–	4.8	–	4.21	–	3.25	–	3.42	–	–	–	–
CC(C)OCc1cc(CN2CCN(c3cccc(Cl)c3)CC2)c(O)c2ncccc12	0.223	11	–	–	0.416	10.2	–	–	0.3	2.26	0.471	3.48	0.445	2.1	0.917	15.6	0.377	11.5	0.611	14.2
CCCCN(CCCC)CC(C(=O)Nc1ccc([N+](=O)[O-])cc1[N+](=O)[O-])/C(C)=N\NC(=O)C[N+](C)(C)C (centres undefined)	–	> 100	–	> 100	–	> 100	–	> 100	–	> 100	–	> 100	–	> 100	–	> 100	–	–	–	–
O=c1[nH]c(F)nc2c1ncn2C1OC(CO)C(O)C1O (centres undefined)	–	–	–	–	> 100	> 100	> 100	> 100	–	–	23.9	80.3	> 100	> 100	> 100	> 100	> 100	> 100	> 100	> 100
Cc1ccc(NC(=O)/C(=N\NC(N)=S)C(C#N)c2ccccc2C)cc1C (centres undefined)	–	> 100	–	> 100	–	–	–	> 100	–	> 100	–	> 100	–	> 100	–	> 100	–	–	–	–
O=[N+]([O-])c1ccc(/C(Cl)=C/c2ccc(/C=C(\Cl)c3ccc([N+](=O)[O-])cc3[N+](=O)[O-])cc2)c([N+](=O)[O-])c1	–	> 100	–	> 100	–	> 100	–	> 100	–	> 100	–	> 100	–	> 100	–	> 100	–	–	–	–
N#CC(/C(=N/NC(N)=S)C(=O)Nc1cccc(Cl)c1)c1ccccc1 (centres undefined)	–	> 100	–	> 100	–	–	–	> 100	–	> 100	–	> 100	–	> 100	–	> 100	–	–	–	–
O=Cc1ccc(-c2ccc(-c3ccc(C=O)o3)[se]2)o1	> 100	> 100	–	–	> 100	> 100	> 100	> 100	16.3	31.1	> 100	> 100	> 100	> 100	> 100	> 100	6.35	> 100	54	> 100
CCC(C)CC(C)C(=O)c1c(O)ccn(O)c1=O (centres undefined)	–	–	–	–	0.804	> 100	1.61	15	2.46	> 100	1.04	8.08	1.53	6.1	1.38	16.2	3.09	> 100	1.04	> 100
CC(=O)N(CCN1C(=O)c2ccccc2C1=O)CCN1C(=O)c2ccccc2C1=O	–	> 100	–	> 100	–	> 100	–	> 100	–	> 100	–	–	–	> 100	–	> 100	–	–	–	–
NC(CO)c1ccc(OCc2ccccc2)cc1 (centres undefined)	–	> 91.4	–	> 100	–	> 100	–	> 100	–	> 100	–	> 100	–	> 100	–	> 100	–	–	–	–
N#Cc1c2ccccc2c2nnc3ccccc3n12	34.8	> 100	12.6	72.1	6.47	25.2	14.9	62.4	–	–	–	–	–	–	–	–	14.2	52.4	–	–
